US20090226527A1, “Particulate-stabilized injectable pharmacutical compositions of posaconazole” (priority 2004, published 2009)
In brackets after ≈: the same amount, converted by molar mass. Where two headings read alike, the source gives them in different places.

Assays:
aspergillosis = experiment: Orally administered Posaconazole: plasma Cmax/Cavg by quartile and response rate for aspergillosis; type: in vivo, patients
From the text: (§1) In order to determine the target dosing for intravenous administration, it was necessary to determine a target range for mean Cavg and mean Cmax. Previous studies on orally administered Posaconazole are instructive in this regard.
(§2) At the same time, posaconazole has a long half-life and a large volume of distribution that results in sustained plasma levels and extensive penetration into body tissues with a likely accumulation in tissues. […] Thus, it can be inferred that posaconazole's long half-life and large volume of distribution results in sustained plasma and tissue levels allowing for safer and better tolerated pharmacokinetic behavior.

[1] = as above; type: in vivo, patients; conditions: human, plasma, po, 800 mg/day
From the text: as §1, §2

[2] = Rising Multiple Dose Study: plasma pharmacokinetics, safety, relative bioavailability of POS IV vs POS oral suspension; type: in vivo, human
Method: A rising, multiple dose assessment of the safety, tolerability, and pharmacokinetics of intravenous Posaconazole in healthy subjects was also conducted. The pharmacokinetic objectives of the study were two-fold: first, to determine the single-dose and multiple-dose pharmacokinetic (PK) profiles of POS IV in healthy subjects; and second, to determine the relative bioavailability of POS IV vs POS oral suspension administered under fed conditions. The formulation used in this study is that of Example 8.
Plasma obtained from blood samples was analyzed for POS using a validated LC-MS/MS method. Plasma pharmacokinetic parameters were determined. Safety was assessed by ECGs, clinical laboratory tests, vital signs, and adverse event monitoring.

[3] = test system: infectious agents (strains tested); experiment: organism not typed; type: cell-based

Question: Which “Response (response rate for aspergillosis)” value (“Response” below) (aspergillosis; Quartile 1) does the source give for `CCC([C@@H](C)O)n1ncn(-c2ccc(N3CCN(c4ccc(OC[C@@H]5CO[C@@](Cn6cncn6)(c6ccc(F)cc6F)C5)cc4)CC3)cc2)c1=O` (stereo partly shown) [Posaconazole] here?
Answer: 24%

Question: And the “Plasma Cavg, mean” value (aspergillosis; Quartile 1, n = 17)?
Answer: 0.134 µg/mL

Question: What about the “Response” value (aspergillosis; Quartile 2) of the same molecule?
Answer: 53%

Question: And the “Plasma Cavg, mean” value (aspergillosis; Quartile 2, n = 17)?
Answer: 0.411 µg/mL

Question: And the “Response” value (aspergillosis; Quartile 3)?
Answer: 53%

Question: And the “Plasma Cavg, mean” value (aspergillosis; Quartile 3, n = 17)?
Answer: 0.719 µg/mL

Question: And the “Response” value (aspergillosis; Quartile 4)?
Answer: 71%

Question: And the “Plasma Cavg, mean” value (aspergillosis; Quartile 4, n = 16)?
Answer: 1.25 µg/mL

Question: What about the Cmax ([1]; Quartile 1, n = 17) of the same molecule?
Answer: 0.142 µg/mL

Question: And the Cmax ([1]; Quartile 2, n = 17)?
Answer: 0.467 µg/mL

Question: What about the Cmax ([1]; Quartile 3, n = 17) of the same molecule?
Answer: 0.852 µg/mL

Question: And the Cmax ([1]; Quartile 4, n = 16)?
Answer: 1.48 µg/mL

Question: And the “Dose proportionality of exposure (Cmax and AUC)” value ([2]; 100- to 400-mg range)?
Answer: approximately dose proportional

Question: And the Safety and tolerability ([2]; healthy subjects, 100-400 mg)?
Answer: safe and well tolerated

Question: What about the “Daily dosing needed to achieve steady-state” value ([2]; human, in vivo) of the same molecule?
Answer: 6 to 7 days

Question: And the clearance ([2]; human, in vivo, Mean systemic clearance at steady-state)?
Answer: 90 to 93.3 mL/min

Question: What about the clearance ([2]; human, in vivo, Mean systemic clearance, single-dose administration on Day 1) of the same molecule?
Answer: 137 to 192 mL/min

Question: And the half-life ([2]; human, in vivo, Single-dose half-life)?
Answer: 26 to 29 h

Question: What about the half-life ([2]; human, in vivo, plasma, read-out: Mean steady-state terminal half-life) of the same molecule?
Answer: 33 to 37 h

Question: And the MIC ([3]; Absidia spp, read-out: Geometric Mean MIC)?
Answer: 0.177 mg/L (≈ 0.253 µM)

Question: And the MIC ([3]; Absidia spp, read-out: MIC[90])?
Answer: 0.031 to 0.5 mg/L (≈ 0.0442 to 0.713 µM)

Question: And the MIC ([3]; Alternaria spp, read-out: Geometric Mean MIC)?
Answer: 0.101 mg/L (≈ 0.144 µM)

Question: And the MIC ([3]; Alternaria spp, read-out: MIC[90])?
Answer: 0.25 mg/L (≈ 0.357 µM)

Question: And the MIC ([3]; Apophysomyces spp, read-out: Geometric Mean MIC)?
Answer: 0.34 mg/L (≈ 0.485 µM)

Question: And the MIC ([3]; Apophysomyces spp, read-out: MIC[90])?
Answer: 0.031 to 4 mg/L (≈ 0.0442 to 5.71 µM)

Question: And the MIC ([3]; Arthroderma terrestre, Trichophyton terrestre, read-out: Geometric Mean MIC)?
Answer: 0.125 mg/L (≈ 0.178 µM)

Question: And the MIC ([3]; Arthroderma terrestre, Trichophyton terrestre, read-out: MIC[90])?
Answer: 0.125 mg/L (≈ 0.178 µM)

Question: What about the MIC ([3]; Aspergillus flavus, read-out: Geometric Mean MIC) of the same molecule?
Answer: 0.079 mg/L (≈ 0.113 µM)

Question: And the MIC ([3]; Aspergillus flavus, read-out: MIC[90])?
Answer: 0.25 mg/L (≈ 0.357 µM)

Question: What about the MIC ([3]; Aspergillus fumigatus, read-out: Geometric Mean MIC) of the same molecule?
Answer: 0.118 mg/L (≈ 0.168 µM)

Question: What about the MIC ([3]; Aspergillus fumigatus, read-out: MIC[90]) of the same molecule?
Answer: 0.5 mg/L (≈ 0.713 µM)

Question: And the MIC ([3]; Aspergillus nidulans, read-out: Geometric Mean MIC)?
Answer: 0.055 mg/L (≈ 0.0785 µM)

Question: What about the MIC ([3]; Aspergillus nidulans, read-out: MIC[90]) of the same molecule?
Answer: 0.25 mg/L (≈ 0.357 µM)

Question: What about the MIC ([3]; Aspergillus niger, read-out: Geometric Mean MIC) of the same molecule?
Answer: 0.195 mg/L (≈ 0.278 µM)

Question: What about the MIC ([3]; Aspergillus niger, read-out: MIC[90]) of the same molecule?
Answer: 0.5 mg/L (≈ 0.713 µM)

Question: And the MIC ([3]; Aspergillus sydowii, read-out: Geometric Mean MIC)?
Answer: 0.177 mg/L (≈ 0.253 µM)

Question: And the MIC ([3]; Aspergillus sydowii, read-out: MIC[90])?
Answer: 0.031 to 0.5 mg/L (≈ 0.0442 to 0.713 µM)

Question: What about the MIC ([3]; Aspergillus terreus, read-out: Geometric Mean MIC) of the same molecule?
Answer: 0.052 mg/L (≈ 0.0742 µM)

Question: And the MIC ([3]; Aspergillus terreus, read-out: MIC[90])?
Answer: 0.25 mg/L (≈ 0.357 µM)

Question: What about the MIC ([3]; Aspergillus ustus, read-out: Geometric Mean MIC) of the same molecule?
Answer: 1.64 mg/L (≈ 2.34 µM)

Question: What about the MIC ([3]; Aspergillus ustus, read-out: MIC[90]) of the same molecule?
Answer: 0.25 to 8 mg/L (≈ 0.357 to 11.4 µM)

Question: And the MIC ([3]; Bipolaris spp, read-out: Geometric Mean MIC)?
Answer: 0.354 mg/L (≈ 0.505 µM)

Question: What about the MIC ([3]; Bipolaris spp, read-out: MIC[90]) of the same molecule?
Answer: 0.125 to 1 mg/L (≈ 0.178 to 1.43 µM)

Question: And the MIC ([3]; Bjerkandera adusta, read-out: Geometric Mean MIC)?
Answer: 0.25 mg/L (≈ 0.357 µM)

Question: And the MIC ([3]; Bjerkandera adusta, read-out: MIC[90])?
Answer: 0.25 mg/L (≈ 0.357 µM)

Question: And the MIC ([3]; Blastomyces dermatitidis, read-out: Geometric Mean MIC)?
Answer: 0.053 mg/L (≈ 0.0756 µM)

Question: And the MIC ([3]; Blastomyces dermatitidis, read-out: MIC[90])?
Answer: 0.125 mg/L (≈ 0.178 µM)

Question: What about the MIC ([3]; Candida albicans, read-out: Geometric Mean MIC) of the same molecule?
Answer: 0.037 mg/L (≈ 0.0528 µM)

Question: And the MIC ([3]; Candida albicans, read-out: MIC[90])?
Answer: 0.25 mg/L (≈ 0.357 µM)

Question: What about the MIC ([3]; Candida dubliniensis, read-out: Geometric Mean MIC) of the same molecule?
Answer: 0.062 mg/L (≈ 0.0885 µM)

Question: And the MIC ([3]; Candida dubliniensis, read-out: MIC[90])?
Answer: 0.25 mg/L (≈ 0.357 µM)

Question: What about the MIC ([3]; Candida tropicalis, read-out: Geometric Mean MIC) of the same molecule?
Answer: 0.081 mg/L (≈ 0.116 µM)

Question: What about the MIC ([3]; Candida tropicalis, read-out: MIC[90]) of the same molecule?
Answer: 0.25 mg/L (≈ 0.357 µM)

Question: And the MIC ([3]; Clavispora lusitaniae, Candida lusitaniae, read-out: Geometric Mean MIC)?
Answer: 0.048 mg/L (≈ 0.0685 µM)

Question: And the MIC ([3]; Clavispora lusitaniae, Candida lusitaniae, read-out: MIC[90])?
Answer: 0.125 mg/L (≈ 0.178 µM)

Question: What about the MIC ([3]; Coccidioides immitis, read-out: Geometric Mean MIC, Coccidioides immitis) of the same molecule?
Answer: 0.304 mg/L (≈ 0.434 µM)

Question: And the MIC ([3]; Coccidioides immitis, read-out: MIC[90], Coccidioides immitis)?
Answer: 1 mg/L (≈ 1.43 µM)

Question: And the MIC ([3]; Cryptococcus neoformans, read-out: Geometric Mean MIC)?
Answer: 0.119 mg/L (≈ 0.17 µM)

Question: What about the MIC ([3]; Cryptococcus neoformans, read-out: MIC[90]) of the same molecule?
Answer: 0.25 mg/L (≈ 0.357 µM)

Question: What about the MIC ([3]; Curvularia spp, read-out: Geometric Mean MIC) of the same molecule?
Answer: 0.072 mg/L (≈ 0.103 µM)

Question: And the MIC ([3]; Curvularia spp, read-out: MIC[90])?
Answer: 0.031 to 0.125 mg/L (≈ 0.0442 to 0.178 µM)

Question: What about the MIC ([3]; Debaryomyces hansenii, Candida famata, read-out: Geometric Mean MIC) of the same molecule?
Answer: 0.125 mg/L (≈ 0.178 µM)

Question: What about the MIC ([3]; Debaryomyces hansenii, Candida famata, read-out: MIC[90]) of the same molecule?
Answer: 0.5 mg/L (≈ 0.713 µM)

Question: What about the MIC ([3]; Diutina rugosa, Candida rugosa, read-out: Geometric Mean MIC) of the same molecule?
Answer: 0.039 mg/L (≈ 0.0557 µM)

Question: And the MIC ([3]; Diutina rugosa, Candida rugosa, read-out: MIC[90])?
Answer: 0.5 mg/L (≈ 0.713 µM)

Question: What about the MIC ([3]; Dujonia zeylanoides, Candida zeylanoides, read-out: Geometric Mean MIC) of the same molecule?
Answer: 0.031 mg/L (≈ 0.0442 µM)

Question: What about the MIC ([3]; Dujonia zeylanoides, Candida zeylanoides, read-out: MIC[90]) of the same molecule?
Answer: 0.008 to 0.25 mg/L (≈ 0.0114 to 0.357 µM)

Question: And the MIC ([3]; Epidermophyton floccosum, read-out: Geometric Mean MIC)?
Answer: 0.029 mg/L (≈ 0.0414 µM)

Question: And the MIC ([3]; Epidermophyton floccosum, read-out: MIC[90])?
Answer: 0.125 mg/L (≈ 0.178 µM)

Question: And the MIC ([3]; Exophiala dermatidis, read-out: Geometric Mean MIC)?
Answer: 0.125 mg/L (≈ 0.178 µM)

Question: And the MIC ([3]; Exophiala dermatidis, read-out: MIC[90])?
Answer: 0.125 mg/L (≈ 0.178 µM)

Question: And the MIC ([3]; Exophiala dermatitidis, Wangiella dermatitidis, read-out: Geometric Mean MIC)?
Answer: 0.088 mg/L (≈ 0.126 µM)

Question: And the MIC ([3]; Exophiala dermatitidis, Wangiella dermatitidis, read-out: MIC[90])?
Answer: 0.063 to 0.125 mg/L (≈ 0.0899 to 0.178 µM)

Question: And the MIC ([3]; Exophiala jeanselmei, read-out: Geometric Mean MIC)?
Answer: 0.287 mg/L (≈ 0.41 µM)

Question: And the MIC ([3]; Exophiala jeanselmei, read-out: MIC[90])?
Answer: 0.5 mg/L (≈ 0.713 µM)

Question: And the MIC ([3]; Exophiala moniliae, read-out: Geometric Mean MIC)?
Answer: 0.016 mg/L (≈ 0.0228 µM)
